Non-standard residues stand in square brackets, D forms with d. Residues, ends and D or L forms follow the SMILES beside them. GABA = NCCCC(=O)O
Key:
Format in all cases: functional, organism-based
[1] = system: Clavibacter michiganensis; experiment: Antibacterial activity against Clavibacter michiganensis
[2] = system: Plectosphaerella cucumerina; experiment: Antifungal activity against Plectosphaerella cucumerina
Xanthomonas campestris = experiment: Antibacterial activity against Xanthomonas campestris
Sinorhizobium meliloti = experiment: Antibacterial activity against Rhizobium meliloti
Botrytis cinerea = experiment: Antifungal activity against Botrytis cinerea

Molecule	EC50 [1] [µM]	EC50 [2] [µM]	EC50 (Xanthomonas campestris) [µM]	EC50 (Sinorhizobium meliloti) [µM]	EC50 (Botrytis cinerea) [µM]
CC[C@H](C)[C@H](NC(=O)[C@H](CCC(=O)O)NC(=O)[C@@H](N)CCCN=C(N)N)C(=O)NCCCC(=O)N[C@@H](C)C(=O)N[C@@H](CCCCN)C(=O)N[C@@H](CCCCN)C(=O)NCCCC(=O)N[C@@H](CCCN=C(N)N)C(=O)O (H-REI[GABA]AKK[GABA]R-OH)	5.13	15.7	> 50	> 50	4.1
CC(C)C[C@H](NC(=O)[C@H](CCCN=C(N)N)NC(=O)CCCNC(=O)[C@@H](NC(=O)[C@H](CC(N)=O)NC(=O)[C@H](Cc1ccc(O)cc1)NC(=O)CCCNC(=O)[C@H](CC(N)=O)NC(=O)[C@H](CCCN=C(N)N)NC(=O)[C@H](C)NC(=O)[C@H](Cc1c[nH]c2ccccc12)NC(=O)[C@@H](N)[C@@H](C)O)C(C)C)C(=O)N1CCC[C@H]1C(=O)O (H-TWARN[GABA]YNV[GABA]RLP-OH)	3.27	3.97	> 50	> 50	1.6
H-THRTRPALAARGASNCYSTYRASNVALCYSARGLEPRARGGLIIECYSALALYSLYSCYS-OH (cysteines drawn unpaired)	0.03	0.16	1.03	2.07	0.08

— ChEMBL document CHEMBL1148607, “A minimalist design approach to antimicrobial agents based on a thionin template” (J Med Chem, 2006)
